Data from ChEMBL document CHEMBL3044861, “Synthesis and Herbicidal Activity of New 2-(1-Carbamoyl-1, 2, 4-triazol-3-ylsulfonyl) alkanoates” (J Pestic Sci, 2002).

Columns and labels:
[1] = Octanol-water partition coefficient, log K of the compound; type: physicochemical; settings: read-out: log K
[2] = system: Echinochloa oryzicola; test: Herbicidal activity against Echinochloa oryzicola assessed as killing pre-emergence application under paddy conditions; type: functional
[3] = system: Zea mays; test: Herbicidal activity against Zea mays (maize)assessed as killing at 500 g/ha pre-emergence application upland paddy conditions measured after 14 days; type: functional
[4] = system: Chenopodium album; test: Herbicidal activity against Chenopodium album assessed as killing at 500 g/ha pre-emergence application upland paddy conditions measured after 14 days; type: functional
[5] = system: Digitaria ciliaris; test: Herbicidal activity against Digitaria ciliaris assessed as killing at 500 g/ha pre-emergence application upland paddy conditions measured after 14 days; type: functional
[6] = system: Echinochloa crus-galli; test: Herbicidal activity against Echinochloa crus-galli (barnyard grass) assessed as killing at 500 g/ha pre-emergence application upland paddy conditions measured after 14 days; type: functional
[7] = system: Oryza sativa; test: Toxicity in Oryza sativa (rice) assessed as injury at 50 g/ha pre-emergence application under paddy conditions by crop safety assay; type: organism-based; settings: in vivo, other
[8] = system: Schoenoplectiella juncoides; test: Herbicidal activity against Schoenoplectiella juncoides assessed as killing at 50 g/ha pre-emergence application under paddy conditions; type: functional
[9] = system: Pontederia vaginalis; test: Herbicidal activity against Monochoria vaginalis assessed as killing at 50 g/ha pre-emergence application under paddy conditions; type: functional
[10] = Herbicidal activity against broadleaf weed assessed as killing at 50 g/ha pre-emergence application under paddy conditions; type: functional
[11] = system: Echinochloa oryzicola; test: Herbicidal activity against Echinochloa oryzicola assessed as killing at 50 g/ha pre-emergence application under paddy conditions; type: functional
[12] = system: Oryza sativa; test: Toxicity in Oryza sativa (rice) assessed as injury at 25 g/ha pre-emergence application under paddy conditions by crop safety assay; type: organism-based; settings: in vivo, other
[13] = system: Schoenoplectiella juncoides; test: Herbicidal activity against Schoenoplectiella juncoides assessed as killing at 25 g/ha pre-emergence application under paddy conditions; type: functional
[14] = system: Pontederia vaginalis; test: Herbicidal activity against Monochoria vaginalis assessed as killing at 25 g/ha pre-emergence application under paddy conditions; type: functional
[15] = Herbicidal activity against broadleaf weed assessed as killing at 25 g/ha pre-emergence application under paddy conditions; type: functional
[16] = system: Echinochloa oryzicola; test: Herbicidal activity against Echinochloa oryzicola assessed as killing at 25 g/ha pre-emergence application under paddy conditions; type: functional

| Compound | logP [1] | log(1/ED80) [2] | Activity [3] [%] | Activity [4] [%] | Activity [5] [%] | Activity [6] [%] | Activity [7] [%] | Activity [8] [%] | Activity [9] [%] | Activity [10] [%] | Activity [11] [%] | Activity [12] [%] | Activity [13] [%] | Activity [14] [%] | Activity [15] [%] | Activity [16] [%] |
| --- | --- | --- | --- | --- | --- | --- | --- | --- | --- | --- | --- | --- | --- | --- | --- | --- |
| CCN(CC)C(=O)n1cnc(S(=O)(=O)C(C(=O)OC)C2CC2)n1 (stereo not given) | 0.47 | 0.24 | 20 | 80 | 100 | 90 | 10 | 10 | 10 | 10 | 10 | – | – | – | – | – |
| C=C(C)CC(C(=O)OC)S(=O)(=O)c1ncn(C(=O)N(CC)CC)n1 (stereo not given) | 0.63 | 0.95 | 40 | 100 | 100 | 100 | 10 | 60 | 100 | 90 | 90 | – | – | – | – | – |
| CCC(CC)C(C(=O)OC)S(=O)(=O)c1ncn(C(=O)N(CC)CC)n1 (stereo not given) | 0.76 | 1.4 | 30 | 90 | 90 | 100 | 10 | 80 | 100 | 90 | 100 | – | – | – | – | – |
| CCN(CC)C(=O)n1cnc(S(=O)(=O)C(C(=O)OC)C(C)C)n1 (stereo not given) | 0.56 | 1.24 | 30 | 90 | 90 | 80 | 40 | 100 | 100 | 90 | 100 | – | – | – | – | – |
| CCN(CC)C(=O)n1cnc(S(=O)(=O)C(CC2CCCCC2)C(=O)OC)n1 (stereo not given) | 0.94 | 1.2 | 20 | 40 | 10 | 40 | 10 | 10 | 10 | 50 | 100 | – | – | – | – | – |
| CCN(CC)C(=O)n1cnc(S(=O)(=O)C(CC(C)C)C(=O)OCC(C)C)n1 (stereo not given) | 1.03 | 0.91 | – | – | – | – | 10 | 100 | 100 | 60 | 80 | 10 | 30 | 40 | 30 | 40 |
| CCN(CC)C(=O)n1cnc(S(=O)(=O)C(CCCC#N)C(=O)OC)n1 (stereo not given) | 0.41 | 0.05 | 70 | 90 | 90 | 90 | 10 | 10 | 10 | 10 | 10 | – | – | – | – | – |
| CCN(CC)C(=O)n1cnc(S(=O)(=O)CCC(C)C)n1 | – | – | – | – | – | – | 10 | 10 | 10 | 50 | 100 | – | – | – | – | – |
| CCN(CC)C(=O)n1cnc(S(=O)(=O)C(CC2CC2)C(=O)OC)n1 (stereo not given) | 0.6 | 0.95 | 60 | 100 | 90 | 90 | 10 | 60 | 100 | 90 | 100 | – | – | – | – | – |
| CC(C)CC(C(=O)OC(C)C)S(=O)(=O)c1ncn(C(=O)N(C(C)C)C(C)C)n1 (stereo not given) | – | – | – | – | – | – | – | 30 | 10 | 60 | 60 | – | – | – | – | – |
| CCN(CC)C(=O)n1cnc(S(=O)(=O)C(CC(=O)OC)C(=O)OC)n1 (stereo not given) | 0.45 | -0.04 | 10 | 30 | 60 | 50 | 10 | 10 | 10 | 10 | 10 | – | – | – | – | – |
| CC(C)CC(C(=O)OC(C)C)S(=O)(=O)c1ncn(C(=O)N2CCCC2)n1 (stereo not given) | – | – | – | – | – | – | 10 | 10 | 10 | 30 | 40 | – | – | – | – | – |
| CCN(CC)C(=O)C(CC(C)C)S(=O)(=O)c1ncn(C(=O)N(CC)CC)n1 (stereo not given) | – | – | – | – | – | – | 20 | 10 | 10 | 10 | 10 | – | – | – | – | – |
| CCC(C)CC(C(=O)OC)S(=O)(=O)c1ncn(C(=O)N(CC)CC)n1 (stereo not given) | 0.79 | 0.99 | 20 | 100 | 90 | 90 | 10 | 80 | 40 | 80 | 90 | – | – | – | – | – |
| CC(C)CC(C(=O)OC(C)C)S(=O)(=O)c1ncn(C(=O)N2CCOCC2)n1 (stereo not given) | – | – | – | – | – | – | – | 10 | 10 | 10 | 10 | – | – | – | – | – |
| CCCCC(C(=O)OC)S(=O)(=O)c1ncn(C(=O)N(CC)CC)n1 (stereo not given) | 0.69 | 0.9 | 50 | 100 | 90 | 90 | 10 | 10 | 40 | 30 | 90 | – | – | – | – | – |
| CC(C)CC(C(=O)OC(C)C)S(=O)(=O)c1ncn(C(=O)N(C)c2ccccc2)n1 (stereo not given) | – | – | – | – | – | – | – | 10 | 10 | 40 | 20 | – | – | – | – | – |
| C=CC(C)C(C(=O)OC)S(=O)(=O)c1ncn(C(=O)N(CC)CC)n1 (stereo not given) | 0.63 | 0.65 | 70 | 90 | 90 | 90 | 10 | 10 | 10 | 10 | 60 | – | – | – | – | – |
| CCC(C)C(C(=O)OC)S(=O)(=O)c1ncn(C(=O)N(CC)CC)n1 (stereo not given) | 0.66 | 0.95 | 40 | 100 | 100 | 90 | 10 | 90 | 60 | 80 | 100 | – | – | – | – | – |
| CCN(CC)C(=O)n1cnc(S(=O)(=O)C(Cc2ccccc2)C(=O)OC)n1 (stereo not given) | 0.69 | 0.6 | 10 | 30 | 10 | 10 | 10 | 10 | 10 | 10 | 50 | – | – | – | – | – |
| CC(C)CC(C(=O)OC(C)C)S(=O)(=O)c1ncn(C(=O)N(C)C2CCCCC2)n1 (stereo not given) | – | – | – | – | – | – | – | 10 | 10 | 50 | 30 | – | – | – | – | – |
| CCC(C(=O)OC)S(=O)(=O)c1ncn(C(=O)N(CC)CC)n1 (stereo not given) | 0.49 | 0.74 | 30 | 40 | 50 | 60 | 10 | 10 | 10 | 10 | 60 | – | – | – | – | – |
| CCN(CC)C(=O)n1cnc(S(=O)(=O)C(C(=O)OC)C2CCCC2)n1 (stereo not given) | 0.69 | 1.27 | 80 | 90 | 90 | 90 | 10 | 100 | 100 | 90 | 100 | – | – | – | – | – |
| CCN(CC)C(=O)n1cnc(S(=O)(=O)C(C)C(=O)OC)n1 (stereo not given) | 0.41 | -0.1 | 20 | 60 | 80 | 60 | 10 | 10 | 10 | 10 | 10 | – | – | – | – | – |
| CCCC(C(=O)OC)S(=O)(=O)c1ncn(C(=O)N(CC)CC)n1 (stereo not given) | 0.58 | 1.14 | 50 | 100 | 100 | 100 | 10 | 60 | 60 | 60 | 100 | – | – | – | – | – |
| CC(C)CC(C(=O)OC(C)C)S(=O)(=O)c1ncn(C(=O)N(C)C)n1 (stereo not given) | – | – | – | – | – | – | – | 10 | 10 | 40 | 60 | – | – | – | – | – |
| CCN(CC)C(=O)n1cnc(S(=O)(=O)CC(=O)OC)n1 | 0.36 | 0.18 | 10 | 30 | 50 | 40 | 10 | 10 | 10 | 10 | 10 | – | – | – | – | – |
